Data reported in patent US20110189094A1, “BIOLOGICAL METHOD FOR IN VIVO TRACKING OF MOLECULES AFFECTING CELLULAR MIGRATION” (UNIVERSIDAD DE CHILE, priority 2008, published 2011).

Assays:
CD80 = experiment: Expression of CD80 in dendritic cells; assay type: cell-based
From the text: (§1) Dendritic cells, when entering the maturation process, start to express chemokine receptors (CCR7, CXCR4) that direct their migration towards the secondary lymphoid organs. We have recently discovered that Fenritinide {4-HPR), a molecule utilized in “clinical trials” against breast cancer and neuroblastoma, inhibits the expression of CCR7 and CXCR4 in dendritic cells in maturation {Villablanca, Allende and collaborators; manuscript in preparation). […] In this way, Fenritinide would produce a blocking of the mature dendritic cells in the periphery, preventing their migration and arrival at the secondary lymphoid organs, affecting in this way the development of an immune response to pathogens or towards the tumoral cells proper.

lateral line primordium = experiment: Lateral line primordium migration in CldnB::GFP transgenic zebra fish larvae (GFP fluorescence); assay type: in vivo, zebra fish (Danio rerio); conditions: 20 μM in medium, 22 hpf until 36 hpf
Description: (§2) Zebra fish (Danio rerio) are used, kept in a 14/10-hour light/darkness cycle. Embryos are recovered after natural fish mating and they grow in Petri plates at 28° C. in E3 medium (5 mM NaCl, 0.17 mM KCl, 0.33 mM CaCl2, 0.33 mM MgSO4, and 0.1% Methylene Blue) until the reach the development stadium suitable for the test, which is determined according to Kimmel et al., (1995). The larval stadiums are designated in post fertilization hours (hpf) or post fertilization days (dpf).
In this first example, in each cup on a plate with 24 cups with 2 ml of E3 medium each, we placed from 3-10 transgenic embryos that express the GFP gene under the control of the CldnB promoter (CldnB::GFP; kindly donated by Dr. Darren Gilmour (EMBL, Heidelberg, Germany). The agents subjected to tests (N˜(4˜hydroxyphenyl)retinamide (Fenretinide, 4-HPR), retinaldehide 9-cis, retinaldehide all-trans and only with the control vehicle: DMSO) were added to the medium at a final concentration of 20 μM when the embryos reached the 22 hpf stadium and the fish were kept in the medium plus the agent until 36 hpf. The GFP mark in the migratory primordium was observed every 4-6 hours in order to monitor its progress. At 36 hpf, we fixed one half of the fish (5 from each cup) with 4% paraformaldehyde dissolved in PBS. We observe the fluorescence of GFP (indicating the primordium position) and evaluated whether it migrated properly or not (FIG. 1).

CCR7 = experiment: Expression of CCR7 in dendritic cells in maturation; assay type: cell-based
From the text: as §1

neuromasts = experiment: DiAsp tinction of mature neuromasts of the posterior lateral line in zebra fish embryos; assay type: in vivo, zebra fish (Danio rerio)
Description: as §2
(§3) In this way, we have evaluated our hypothesis of the Fenritinide effect on dendritic cells, taking our invention as the test model. Zebra fish embryos were incubated in accordance with the basic conditions described in Example 1, but in the presence of Fenritinide since the time when the posterior lateral line primordium starts to migrate (22 hours post fecundation (hpf) stadium), until the LLP system is mature (36 hpf stadium) and is easily visualized with the DiAsp tinction. […] We checked whether the absence of mature neuromasts is caused by migration blocking by means of in situ hybridization using the claudin-B (anti-claudinB antibody, detected with immunofluorescence) primordium marker.
(§4) Embryos in the 22 hpf stadium were incubated between 26 and 28° C., in the absence or presence of either PGD2 or 15-deoxy-PJE2, permitting the development of embryos up to the 36 hpf stadium, at which time we checked the primordium advance both in the treated embryos and in the (untreated) control embryos.

[1] = system: posterior lateral line primordium; experiment: Primordium migration with claudin-B primordium marker in zebra fish embryos; assay type: in vivo, zebra fish (Danio rerio); conditions: Example 2, incubation 22 hpf until 36 hpf
Description: as §2, §3

CXCR4 [2] = experiment: Expression of CXCR4 in dendritic cells in maturation; assay type: cell-based
From the text: as §1

CD86 = experiment: Expression of CD86 in dendritic cells; assay type: cell-based
From the text: as §1

CD83 = experiment: Expression of CD83 in dendritic cells; assay type: cell-based
From the text: as §1

LLP primordium = LLP primordium advance in zebra fish embryos incubated with prostaglandins; assay type: in vivo, zebra fish (Danio rerio)
Description: as §2, §4

human dendritic cells = conditions: literature, Nencioni et al. 2002; cited from earlier work
CXCR4 [3] = conditions: literature, Scandelia et al. 2002; cited from earlier work
dendritic cells = experiment: Migration of dendritic cells; assay type: cell-based; conditions: negative control
From the text: as §1

[4] = Example 3, 10 μM, 22 hpf up to 36 hpf

## CC1=C(/C=C/C(C)=C/C=C/C(C)=C/C(=O)Nc2ccc(O)cc2)C(C)(C)CCC1 [4-HPR, N˜(4˜hydroxyphenyl)retinamide]
CD80
  inhibition of CD80: does not inhibit
Lateral line primordium
  migration of the lateral line primordium (GFP fluorescence): delay in the migration
CCR7
  expression of CCR7: inhibits
neuromasts; Example 2, incubation 22 hpf until 36 hpf
  DiAsp tinction of mature neuromasts: negative
[1]
  primordium migration (claudin-B primordium marker): blocking of the migratory primordium at the beginning of its migration
CXCR4 [2]
  expression of CXCR4: inhibits
CD86
  inhibition of CD86: does not inhibit
CD83
  inhibition of CD83: does not inhibit

## CC1=C(/C=C/C(C)=C\C=C\C(C)=C\C=O)C(C)(C)CCC1 [9cRA, 9-cis retinaldehyde]
Lateral line primordium
  migration of the lateral line primordium (GFP fluorescence): normal migration

## CCCCC[C@H](O)/C=C/[C@H]1C(=O)C[C@H](O)[C@@H]1C/C=C\CCCC(=O)O [PGD2]
LLP primordium; [4]
  LLP primordium migration: considerably slower
Human dendritic cells
  migration through CXCR4 in human dendritic cells: inhibit migration
neuromasts; [4]
  DiAsp tinction of neuromasts: negative

## CCCCC[C@H](O)/C=C/[C@H]1[C@H](O)CC(=O)[C@@H]1C/C=C\CCCC(=O)O [PGE2]
LLP primordium; Example 3, 22 hpf up to 36 hpf, concentration not given
  LLP primordium migration: migrated normally
CXCR4 [3]
  expression of CXCR4 in dendritic cells: increments
neuromasts; Example 3, 22 hpf up to 36 hpf, 26-28° C., concentration not given
  DiAsp tinction of neuromasts: dyed with DiAsp

## CC1=C(/C=C/C(C)=C/C=C/C(C)=C/C(=O)O)C(C)(C)CCC1 [retinoic acid]
Dendritic cells
  inhibition of the migration of dendritic cells: not capable of inhibiting
CXCR4 [2]
  expression of CXCR4: not capable of inhibiting

## retinaldehide all-trans [atRA]
Lateral line primordium
  migration of the lateral line primordium (GFP fluorescence): normal migration
